Target: T1, FSHR (Homo sapiens, UniProt P23945)
T1 construct: expressed in transfected cells; host or cells: CHO (Cho-FSHR-LUC-1-1-43)
Experiment: EC50 of cyclic AMP production in CHO FSHR cells + EC20 FSH (Assay A)
Format: cell-based
Conditions: CHO FSHR cells + EC20 FSH; Table 2; read-out: Assay A EC50 of cyclic AMP production
Outline: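 cAMP HTRF ratio (665/620 nm) read after 1 h, 37 °C exposure of CHO-FSHR cells to compound in presence of EC20 FSH ([…]) and IBMX 200 μM. Responses given relative to FSH standard maximum; EC50 derived.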

T1 sequence (P23945 18-695): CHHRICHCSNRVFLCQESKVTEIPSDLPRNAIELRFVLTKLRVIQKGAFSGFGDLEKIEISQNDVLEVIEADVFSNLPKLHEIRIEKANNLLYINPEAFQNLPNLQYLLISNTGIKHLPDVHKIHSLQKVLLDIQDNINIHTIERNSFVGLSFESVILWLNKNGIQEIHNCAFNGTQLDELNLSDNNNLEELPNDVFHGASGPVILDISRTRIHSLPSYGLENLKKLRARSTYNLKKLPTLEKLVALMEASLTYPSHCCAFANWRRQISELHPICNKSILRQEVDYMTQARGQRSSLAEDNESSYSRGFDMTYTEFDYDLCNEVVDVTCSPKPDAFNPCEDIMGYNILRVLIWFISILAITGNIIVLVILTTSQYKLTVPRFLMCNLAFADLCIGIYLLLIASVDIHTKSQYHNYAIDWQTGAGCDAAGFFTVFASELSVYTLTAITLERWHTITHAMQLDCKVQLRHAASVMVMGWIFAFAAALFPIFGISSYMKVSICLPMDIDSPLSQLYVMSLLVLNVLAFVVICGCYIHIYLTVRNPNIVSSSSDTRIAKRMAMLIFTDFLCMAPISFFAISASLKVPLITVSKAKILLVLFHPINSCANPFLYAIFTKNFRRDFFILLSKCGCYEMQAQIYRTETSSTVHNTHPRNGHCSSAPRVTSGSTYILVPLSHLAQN
T1 sequence (P01215 25-116 partner): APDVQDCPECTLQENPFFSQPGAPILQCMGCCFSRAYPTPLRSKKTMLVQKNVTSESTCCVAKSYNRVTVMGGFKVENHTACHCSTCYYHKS
T1 sequence (P01225 19-129 partner): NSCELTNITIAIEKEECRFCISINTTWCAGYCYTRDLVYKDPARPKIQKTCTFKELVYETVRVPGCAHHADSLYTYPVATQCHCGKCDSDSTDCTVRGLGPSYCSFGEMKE

CNCc1cccc(CNC(=O)c2ccc(N3CCN(c4ccccc4C)CC3)c(NC(=O)c3ccco3)c2)c1 [Compound 323]
EC50: 0.1 to 1 µM

CCn1nc(C2CC2)cc1C(=O)Nc1cc(C(=O)NCCCN2CCCC2=O)ccc1N1CCN(c2ccccc2C)CC1 [Compound 324]
EC50: 1 to 10 µM

Cc1ccccc1N1CCN(c2ccc(C(=O)NC3(c4cccc(C(N)=O)c4)CC3)cc2NC(=O)c2ccco2)CC1 [Compound 325]
EC50: 0.1 to 1 µM

Cc1ccccc1N1CCN(c2ccc(C(=O)NCc3cccc(CN(C)C(=O)OC(C)(C)C)c3)cc2NC(=O)c2ccco2)CC1 [Compound 326]
EC50: > 10 µM

Cc1ccccc1N1CCN(c2ccc(C(=O)NCc3cccc(CN)c3)cc2NC(=O)c2ccco2)CC1 [Compound 327]
EC50: 0.1 to 1 µM

Cc1ccccc1N1CCN(c2ccc(C(=O)NCCCN3C(=O)CCC3C)cc2NC(=O)c2coc(C3CC3)n2)CC1 (centres unmarked) [Compound 330]
EC50: 0.1 to 1 µM

Cc1ccccc1N1CCN(c2ccc(C(=O)NCCCN3CCN(C)C3=O)cc2NC(=O)c2coc(C3CC3)n2)CC1 [Compound 331]
EC50: < 0.1 µM

Cc1ccccc1N1CCN(c2ccc(C(=O)NCCCN3C(=O)OCC3C)cc2NC(=O)c2coc(C3CC3)n2)CC1 (centres unmarked) [Compound 332]
EC50: 0.1 to 1 µM

Cc1ccccc1N1CCN(c2ccc(C(=O)NCCC(C)N3CCCC3=O)cc2NC(=O)c2coc(C3CC3)n2)CC1 (centres unmarked) [Compound 333]
EC50: 0.1 to 1 µM

Cc1ccc(C(=O)Nc2cc(C(=O)NCCCc3cn[nH]c3)ccc2N2CCN(c3ccccc3C)CC2)o1 [Compound 334]
EC50: 0.1 to 1 µM

Cc1ccccc1N1CCN(c2ccc(C(=O)N[C@@H](CO)c3ccccc3)cc2NC(=O)c2coc(C3CC3)n2)CC1 [Compound 343]
EC50: 1 to 10 µM

Cc1ccccc1N1CCN(c2ccc(C(=O)NC3CCN(C4CCCC4)C3)cc2NC(=O)c2ccco2)CC1 (centres unmarked) [Compound 345]
EC50: 1 to 10 µM

Cc1ccccc1N1CCN(c2ccc(C(=O)NC(C)c3ccccc3)cc2NC(=O)c2coc(C3CC3)n2)CC1 (centres unmarked) [Compound 346]
EC50: 0.1 to 1 µM

Cc1ccccc1N1CCN(c2ccc(C(=O)NCCN3C(=O)CCC3=O)cc2NC(=O)c2coc(C3CC3)n2)CC1 [Compound 347]
EC50: > 10 µM

Cc1ccccc1N1CCN(c2ccc(C(=O)NCc3cccc(CN(C)C)c3)cc2NC(=O)c2coc(C3CC3)n2)CC1 [Compound 348]
EC50: 0.1 to 1 µM

Cc1ccccc1N1CCN(c2ccc(C(=O)NCCN3CCOC3=O)cc2NC(=O)c2coc(C3CC3)n2)CC1 [Compound 350]
EC50: 0.1 to 1 µM

Cc1ccccc1N1CCN(c2ccc(C(=O)NCCCC(=O)O)cc2NC(=O)c2coc(C3CC3)n2)CC1 [Compound 351]
EC50: 0.1 to 1 µM

Cc1ccccc1N1CCN(c2ccc(C(=O)NCCCN3C(=O)[C@@H]4C=C[C@H]3C4)cc2NC(=O)c2coc(C3CC3)n2)CC1 [Compound 352]
EC50: 0.1 to 1 µM

Cc1ccccc1N1CCN(c2ccc(C(=O)NCCCN3C(=O)[C@@H]4CC[C@H]3C4)cc2NC(=O)c2coc(C3CC3)n2)CC1 [Compound 353]
EC50: 0.1 to 1 µM

Cc1ccccc1N1CCN(c2ccc(C(=O)NCCCN3C(=O)CCC3(C)C)cc2NC(=O)c2coc(C3CC3)n2)CC1 [Compound 354]
EC50: 0.1 to 1 µM

CC(=O)NCC(C)(C)CNC(=O)c1ccc(N2CCN(c3ccccc3C)CC2)c(NC(=O)c2coc(C3CC3)n2)c1 [Compound 355]
EC50: 0.1 to 1 µM

Cc1ccccc1N1CCN(c2ccc(C(=O)NCC(C)(C)CN3CCCC3=O)cc2NC(=O)c2coc(C3CC3)n2)CC1 [Compound 356]
EC50: 0.1 to 1 µM

Cc1ccccc1N1CCN(c2ccc(C(=O)NCCCN3C(=O)OC[C@H]3CO)cc2NC(=O)c2coc(C3CC3)n2)CC1 [Compound 357]
EC50: 0.1 to 1 µM

Cc1ccccc1N1CCN(c2ccc(C(=O)NCCCN3C(=O)OCC3(C)C)cc2NC(=O)c2coc(C3CC3)n2)CC1 [Compound 358]
EC50: 0.1 to 1 µM

Cc1ccccc1N1CCN(c2ccc(C(=O)NCC3(C(N)=O)CC3)cc2NC(=O)c2coc(C3CC3)n2)CC1 [Compound 359]
EC50: 0.1 to 1 µM

CC(=O)N(C)CCCNC(=O)c1ccc(N2CCN(c3ccccc3C)CC2)c(NC(=O)c2coc(C3CC3)n2)c1 [Compound 360]
EC50: < 0.1 µM

Cc1ccccc1N1CCN(c2ccc(C(=O)NCCCC(=O)CN(c3ccccc3)c3ccccc3)cc2NC(=O)c2coc(C3CC3)n2)CC1 [Compound 361]
EC50: 1 to 10 µM

Cc1ccccc1N1CCN(c2ccc(C(=O)NCCCN3CCC(F)(F)C3)cc2NC(=O)c2coc(C3CC3)n2)CC1 [Compound 362]
EC50: 0.1 to 1 µM

Cc1ccccc1N1CCN(c2ccc(C(=O)NCCCC(=O)NC3CCC3)cc2NC(=O)c2coc(C3CC3)n2)CC1 [Compound 363]
EC50: 0.1 to 1 µM

Cc1ccccc1N1CCN(c2ccc(C(=O)NC(C)CCN3CCCC3=O)cc2NC(=O)c2coc(C3CC3)n2)CC1 (centres unmarked) [Compound 364]
EC50: 0.1 to 1 µM

Cc1ccccc1N1CCN(c2ccc(C(=O)NCCCN3CC(C)OC3=O)cc2NC(=O)c2coc(C3CC3)n2)CC1 (centres unmarked) [Compound 366]
EC50: 0.1 to 1 µM

CCNC(=O)N(C)CCCNC(=O)c1ccc(N2CCN(c3ccccc3C)CC2)c(NC(=O)c2coc(C3CC3)n2)c1 [Compound 367]
EC50: 0.1 to 1 µM

CC(=O)NCCCNC(=O)c1ccc(N2CCN(c3ccccc3C)CC2)c(NC(=O)c2coc(C3CC3)n2)c1 [Compound 368]
EC50: 0.1 to 1 µM

Cc1ccc(C(=O)Nc2cc(C(=O)NCCCN3C(=O)OCC3(C)C)ccc2N2CCN(c3ccccc3C)CC2)o1 [Compound 369]
EC50: 1 to 10 µM

Cc1ccc(C(=O)Nc2cc(C(=O)NCCCN3CC(C)OC3=O)ccc2N2CCN(c3ccccc3C)CC2)o1 (centres unmarked) [Compound 370]
EC50: 1 to 10 µM

Cc1ccccc1N1CCN(c2ccc(C(=O)NCCNC3CS(=O)(=O)CC3O)cc2NC(=O)c2ccco2)CC1 (centres unmarked) [Compound 371]
EC50: 0.1 to 1 µM

Cc1ccccc1N1CCN(c2ccc(C(=O)NCCCc3ccccc3O)cc2NC(=O)c2ccco2)CC1 [Compound 372]
EC50: 0.1 to 1 µM

Cc1ccccc1N1CCN(c2ccc(C(=O)NCCCc3ccccc3Cl)cc2NC(=O)c2ccco2)CC1 [Compound 373]
EC50: 1 to 10 µM

Cc1ccccc1N1CCN(c2ccc(C(=O)NCCCn3nccc3C3CC3)cc2NC(=O)c2ccco2)CC1 [Compound 374]
EC50: 0.1 to 1 µM

Cc1ccccc1N1CCN(c2ccc(C(=O)NCCCC3CCCC3)cc2NC(=O)c2ccco2)CC1 [Compound 375]
EC50: 0.1 to 1 µM

Cc1ccccc1N1CCN(c2ccc(C(=O)NCC(=O)NC3CCS(=O)(=O)C3)cc2NC(=O)c2ccco2)CC1 (centres unmarked) [Compound 376]
EC50: 0.1 to 1 µM

Cc1ccccc1N1CCN(c2ccc(C(=O)NCCCC3CCS(=O)(=O)C3)cc2NC(=O)c2ccco2)CC1 (centres unmarked) [Compound 377]
EC50: 0.1 to 1 µM

Cc1ccccc1N1CCN(c2ccc(C(=O)NCCCN3C(=O)C(=O)N(C)C3=O)cc2NC(=O)c2ccco2)CC1 [Compound 379]
EC50: 0.1 to 1 µM

Cc1ccccc1N1CCN(c2ccc(C(=O)NCC3C[C@@H]4CC[C@H]3C4)cc2NC(=O)c2ccco2)CC1 (some centres unmarked) [Compound 380]
EC50: 0.1 to 1 µM

Cc1ccccc1N1CCN(c2ccc(C(=O)NCc3cccc(-c4nccs4)c3)cc2NC(=O)c2coc(C3CC3)n2)CC1 [Compound 382]
EC50: 0.1 to 1 µM

Cc1ccccc1N1CCN(c2ccc(C(=O)NCCCN3CCCC3=O)cc2NC(=O)c2cnc(C3CC3)s2)CC1 [Compound 383]
EC50: 0.1 to 1 µM

Cc1ccccc1N1CCN(c2ccc(C(=O)NCCCN3C(=O)CCC3=O)cc2NC(=O)c2ccc(Br)o2)CC1 [Compound 384]
EC50: 0.1 to 1 µM

Cc1ccccc1N1CCN(c2ccc(C(=O)NCCCN3CCOC3=O)cc2NC(=O)c2ccc(Br)o2)CC1 [Compound 385]
EC50: 0.1 to 1 µM

Cc1ccccc1N1CCN(c2ccc(C(=O)NCCCN3CCCC3=O)cc2NC(=O)c2cnc(C3CC3)o2)CC1 [Compound 386]
EC50: 0.1 to 1 µM

Cc1ccccc1N1CCN(c2ccc(C(=O)NCCNC3CCS(=O)(=O)C3)cc2NC(=O)c2ccco2)CC1 (centres unmarked) [Compound 387]
EC50: 0.1 to 1 µM

Cc1ccccc1N1CCN(c2ccc(C(=O)NCCCc3ccc(O)cc3)cc2NC(=O)c2ccco2)CC1 [Compound 388]
EC50: < 0.1 µM

Cc1ccccc1N1CCN(c2ccc(C(=O)NCCNC3CCCC3)cc2NC(=O)c2ccco2)CC1 [Compound 389]
EC50: > 10 µM

Cc1ccccc1N1CCN(c2ccc(C(=O)NCCCc3nc(C)c(C)s3)cc2NC(=O)c2coc(C3CC3)n2)CC1 [Compound 390]
EC50: 0.1 to 1 µM

Cc1ccccc1N1CCN(c2ccc(C(=O)NCCCc3scnc3C)cc2NC(=O)c2coc(C3CC3)n2)CC1 [Compound 391]
EC50: 0.1 to 1 µM

Cc1ccccc1N1CCN(c2ccc(C(=O)NCCCc3nccs3)cc2NC(=O)c2coc(C3CC3)n2)CC1 [Compound 393]
EC50: 0.1 to 1 µM

Cc1csc(CCCNC(=O)c2ccc(N3CCN(c4ccccc4C)CC3)c(NC(=O)c3coc(C4CC4)n3)c2)n1 [Compound 395]
EC50: 0.1 to 1 µM

Cc1ccccc1N1CCN(c2ccc(C(=O)NCCCn3cncn3)cc2NC(=O)c2coc(C3CC3)n2)CC1 [Compound 396]
EC50: 0.1 to 1 µM

Cc1ccccc1N1CCN(c2ccc(C(=O)NCCc3ccccc3C#N)cc2NC(=O)c2coc(C3CC3)n2)CC1 [Compound 397]
EC50: 0.1 to 1 µM

Cc1ccc(C(=O)Nc2cc(C(=O)NC(C)CCN3CCCC3=O)ccc2N2CCN(c3ccccc3C)CC2)o1 (centres unmarked) [Compound 398]
EC50: 0.1 to 1 µM

O=C(NCCCN1CCCC1=O)c1ccc(N2CC=C(c3ccccc3)CC2)c(NC(=O)c2coc(C3CC3)n2)c1 [Compound 399]
EC50: 0.1 to 1 µM

CC(=O)NC1(c2ccccc2)CCN(c2ccc(C(=O)NCCCN3CCCC3=O)cc2NC(=O)c2coc(C3CC3)n2)CC1 [Compound 400]
EC50: > 10 µM

NC1(c2ccccc2)CCN(c2ccc(C(=O)NCCCN3CCCC3=O)cc2NC(=O)c2coc(C3CC3)n2)CC1 [Compound 401]
EC50: > 10 µM

O=C(NCCCN1CCCC1=O)c1ccc(N2CCN(c3ccccc3F)CC2)c(NC(=O)c2coc(C3CC3)n2)c1 [Compound 402]
EC50: 0.1 to 1 µM

O=C(NCCCN1CCCC1=O)c1ccc(N2CCN(c3ccccc3OC(F)(F)F)CC2)c(NC(=O)c2coc(C3CC3)n2)c1 [Compound 403]
EC50: 1 to 10 µM

Cc1ccc(C(=O)Nc2cc(C(=O)NCCCN3CCCC3=O)ccc2N2CCN(c3ccccc3OC(F)(F)F)CC2)o1 [Compound 404]
EC50: 1 to 10 µM
